Tests used:
normal cell line WI-38 = assay: Measuring intracellular PpIX concentration by HPLC; type: cell-based, human; conditions: WI-38, regardless of the 5-ALA concentration added, 37 or 42° C.
Experimental: These two types of cells were cultured at 37 or 42° C. for 24 hours in a DME medium containing 10% FBS and 5-ALA at a concentration of 0, 0.5, 1, or 2 mM. Next, the cells were harvested using trypsin treatment. Then, the number of cells contained in a measurement sample was adjusted using a hemocytometer at 1×10^4. After that, the cells were lysed with NaOH, and treated with a DMF solution (i.e., a mixture of N,N-dimethylformamide:2-propanol=100:1). The resulting cell lysate was centrifuged at 13,000 rpm and 4° C. for 10 minutes to collect a supernatant. Subsequently, the supernatant was reacted at room temperature for 24 hours. Finally, the resulting supernatant was used as a measurement sample, and was subjected to a PpIX concentration measurement using HPLC.

[1] = system: human embryonic kidney cell line HEK293; assay: Hyperthermia sensitivity test using trypan blue reagent; type: cell-based; conditions: for fraction of dead cells (%), increase compared with 5-ALA-free cells: 42° C.
Source text: (§1) A colon cancer-derived cell line Caco-2, a human hepatoma-derived cell line HepG2, a human gastric cancer-derived cell line KatoIII, and a human cervical cancer-derived cell line HeLa were used as cancer cell lines. A human embryonic kidney cell line HEK293 was used as cells transformed so as to overgrow like cancer cells. A human normal diploid fibroblast line WI-38, a murine fibroblast-like cell line NIH3T3, and a human embryonic lung-derived normal fibroblast MRCS were used as normal cells. Each of these cells was cultured at 37 or 42° C. for 24 hours in a DME medium containing 10% FBS and 5-ALA at a concentration of 0, 0.5, 1, or 2 mM, and treated with trypsin for cell harvest. Then, equal volumes of the harvested cell-containing solution and a trypan blue reagent were mixed, and the number of the cells was counted with a hemocytometer to calculate the fraction of dead cells (cells stained with trypan blue) (%; percent cell death).

[2] = system: human cervical cancer-derived cell line HeLa; assay: as above; type: cell-based
Source text: as §1

[3] = system: human embryonic lung-derived normal fibroblast MRCS; assay: as above; type: cell-based; conditions: 42° C.
Source text: as §1

[4] = system: human hepatoma-derived cell line HepG2; assay: as above; type: cell-based; conditions: for fraction of dead cells (%), increase compared with 5-ALA-free cells: 42° C.
Source text: as §1

[5] = system: human normal diploid fibroblast line WI-38; assay: as above; type: cell-based; conditions: normal cells WI-38, 42° C.
Source text: as §1

[6] = system: human gastric cancer-derived cell line KatoIII; assay: as above; type: cell-based
Source text: as §1

[7] = system: murine fibroblast-like cell line NIH3T3; assay: as above; type: cell-based; conditions: normal cells NIH3T3, 42° C.
Source text: as §1

[8] = system: colon cancer-derived cell line Caco-2; assay: as above; type: cell-based; conditions: for fraction of dead cells (%), increase compared with 5-ALA-free cells: 42° C.
Source text: as §1

[9] = 37° C., each concentration of 5-ALA

NCC(=O)CCC(=O)O [5-ALA, 5-aminolevulinic acid]
intracellular PpIX concentration (in words) (normal cell line WI-38): detection limit or less
fraction of dead cells (%), increase compared with 5-ALA-free cells ([1]; HEK293, 0.5 mM 5-ALA): about 1.6 times
fraction of dead cells (%), increase compared with 5-ALA-free cells ([1]; HEK293, 1.0 mM 5-ALA): about 2.0 times
fraction of dead cells (%), increase compared with 5-ALA-free cells ([1]; HEK293, 2.0 mM 5-ALA): about 3.5 times
fraction of dead cells (in words) ([1]; HEK293, 37° C., each concentration of 5-ALA): did not increase
fraction of dead cells (in words) ([1]; HEK293, 42° C.): markedly increased depending on the 5-ALA concentration
fraction of dead cells (%), increase compared with 5-ALA-free cells ([2]; 0.5 mM 5-ALA, 42° C.): about 1.4 times
fraction of dead cells (%), increase compared with 5-ALA-free cells ([2]; 1.0 mM 5-ALA, 42° C.): about 1.5 times
fraction of dead cells (%), increase compared with 5-ALA-free cells ([2]; 2.0 mM 5-ALA, 42° C.): about 1.6 times
fraction of dead cells (in words) [2, 9]: did not increase
fraction of dead cells (in words) ([2]; 42° C.): markedly increased depending on the 5-ALA concentration
increase in the fraction of dead cells depending on the 5-ALA concentration (in words) [3]: no increase
fraction of dead cells (%), increase compared with 5-ALA-free cells ([4]; HepG2, 0.5 mM 5-ALA): about 1.1 times
fraction of dead cells (%), increase compared with 5-ALA-free cells ([4]; HepG2, 1.0 mM 5-ALA): about 1.35 times
fraction of dead cells (%), increase compared with 5-ALA-free cells ([4]; HepG2, 2.0 mM 5-ALA): about 1.5 times
fraction of dead cells (in words) ([4]; HepG2, 37° C., each concentration of 5-ALA): did not increase
fraction of dead cells (in words) ([4]; HepG2, 42° C.): markedly increased depending on the 5-ALA concentration
increase in the fraction of dead cells depending on the 5-ALA concentration (in words) [5]: no increase
fraction of dead cells (%), increase compared with 5-ALA-free cells ([6]; 0.5 mM 5-ALA, 42° C.): about 1.8 times
fraction of dead cells (%), increase compared with 5-ALA-free cells ([6]; 1.0 mM 5-ALA, 42° C.): about 1.8 times
fraction of dead cells (%), increase compared with 5-ALA-free cells ([6]; 2.0 mM 5-ALA, 42° C.): about 1.8 times
fraction of dead cells (in words) [6, 9]: did not increase
fraction of dead cells (in words) ([6]; 42° C.): markedly increased depending on the 5-ALA concentration
increase in the fraction of dead cells depending on the 5-ALA concentration (in words) [7]: no increase
fraction of dead cells (%), increase compared with 5-ALA-free cells ([8]; Caco-2, 0.5 mM 5-ALA): about 1.2 times
fraction of dead cells (%), increase compared with 5-ALA-free cells ([8]; Caco-2, 1.0 mM 5-ALA): about 1.7 times
fraction of dead cells (%), increase compared with 5-ALA-free cells ([8]; Caco-2, 2.0 mM 5-ALA): about 1.6 times
fraction of dead cells (in words) ([8]; Caco-2, 37° C., each concentration of 5-ALA): did not increase
fraction of dead cells (in words) ([8]; Caco-2, 42° C.): markedly increased depending on the 5-ALA concentration
